Earlier results in article PMC12181400, “Leveraging viral genome sequences and machine learning models for identification of potentially selective antiviral agents” (Communications Chemistry, 2025).
Counter-ions that a name gives are not always drawn. Like-named read-outs stand apart in the source and are kept apart here.

What was measured:
Conditions in all cases: cited from earlier work
[1] = tested on: cell viability (tox21-ap1-agonist-p1)
[2] = tested on: cell viability (tox21-ar-mda-kb2-luc-agonist-p3)
[3] = tested on: cell viability (tox21-ar-mda-kb2-luc-antagonist-p2)
[4] = tested on: cell viability (tox21-are-bla-p1)
[5] = tested on: cell viability (tox21-car-agonist-p1)
[6] = tested on: cell viability (tox21-car-antagonist-p1)
[7] = curve rank −9 to 9, 0 = inactive, ref NCATS Tox21 public data browser

Row | SMILES | tox21-ap1-agonist-p1-viability (curve rank) [1] | tox21-ar-mda-kb2-luc-agonist-p3-viability (curve rank) [2] | tox21-ar-mda-kb2-luc-antagonist-p2-viability (curve rank) [3] | tox21-are-bla-p1-viability (curve rank) [4] | tox21-car-agonist-p1-viability (curve rank) [5] | tox21-car-antagonist-p1-viability (curve rank) [6] | tox21-ap1-agonist-p1-viability (curve rank) [1, 7] | tox21-ar-mda-kb2-luc-agonist-p3-viability (curve rank) [2, 7] | tox21-ar-mda-kb2-luc-antagonist-p2-viability (curve rank) [3, 7] | tox21-are-bla-p1-viability (curve rank) [4, 7] | tox21-car-agonist-p1-viability (curve rank) [5, 7] | tox21-car-antagonist-p1-viability (curve rank) [6, 7]
1 | CCOC(=O)[C@H](CCc1ccccc1)N[C@@H](C)C(=O)N1CCC[C@H]1C(=O)O [Enalapril maleate] | 0 | 0 | 0 | 0 | 0 | 0 |  |  |  |  |  | 
2 | CSc1ccc(C(=O)c2[nH]c(=O)[nH]c2C)cc1 [Enoximone] | 0 | 0 | 0 | 0 | 0 | 0 |  |  |  |  |  | 
3 | O=C(Cn1ccnc1[N+](=O)[O-])NCCO [Etandazole] | 0 | 0 | 0 | 0 | 0 | 0 |  |  |  |  |  | 
4 | CCOC(=O)c1cncn1[C@H](C)c1ccccc1 [Etomidate] |  |  |  |  |  |  | 0 | 0 | 0 | 0 | 0 | 0
5 | NC(=O)OCC(COC(N)=O)c1ccccc1 [Felbamate] |  |  |  |  |  |  | 0 | 0 | 0 | 0 | 0 | 0
6 | NC(Cc1ccc(Cl)cc1)C(=O)O (stereo not drawn) [Fenclonine] | 0 | 0 | 0 | 0 | 0 | 0 |  |  |  |  |  | 
7 | O=C1NCC2(CCN(CCc3ccccc3)CC2)O1 [Fenspiride hydrochloride] |  |  |  |  |  |  | 0 | 0 | 0 | 0 | 0 | 0
8 | COP(=S)(OC)Oc1ccc(SC)c(C)c1 [Fenthion] |  |  |  |  |  |  | 0 | 0 | 0 | 0 | 0 | 0
9 | CCOC(=O)c1ncn2c1CN(C)C(=O)c1cc(F)ccc1-2 [Flumazenil] | 0 | 0 | 0 | 0 | 0 | 0 |  |  |  |  |  | 
10 | NP(N)(=O)NC(=O)c1ccc(F)cc1 [Flurofamide] | 0 | 0 | 0 | 0 | 0 | 0 |  |  |  |  |  | 
11 | CCC(=O)O[C@]1(C(=O)SCF)[C@H](C)C[C@H]2[C@@H]3C[C@H](F)C4=CC(=O)C=C[C@]4(C)[C@@]3(F)[C@@H](O)C[C@@]21C [Fluticasone propionate] | 0 | 0 | 0 | 0 | 0.67 | 0 |  |  |  |  |  | 
12 | Nc1nc2ncc(CNc3ccc(C(=O)N[C@@H](CCC(=O)O)C(=O)O)cc3)nc2c(=O)[nH]1 [Folic acid] | 0 | 0 | 0 | 0 | 0 | 0 |  |  |  |  |  | 
13 | Cc1ccc(S(=O)(=O)NC(=O)NN2CC3CCCC3C2)cc1 (stereo not drawn) [Gliclazide] | 0 | 0 | 0 | 0 | 0 | 0 |  |  |  |  |  | 
14 | CCCCCC(N)=O [Hexanamide] |  |  |  |  |  |  | 0 | 0 | 0 | 0 | 0 | 0
15 | O=C(O)CCCCC(=O)O [Hexanedioic acid] |  |  |  |  |  |  | 0 | 0 | 0 | 0 | 0 | 0
16 | C[C@]12CCC(=O)C=C1CC[C@@H]1[C@@H]2[C@@H](O)C[C@@]2(C)[C@H]1CC[C@]2(O)C(=O)CO [Hydrocortisone] | 0 | 0 | 0 | 0 | 0 | 0 |  |  |  |  |  | 
17 | Nc1c2c(nc3ccccc13)CCCC2O.O=C(O)/C=C\C(=O)O (stereo not drawn) [Hydroxytacrine maleate] |  |  |  |  |  |  | 0 | 0 | 0 | 0 | 0 | 0
18 | CC1Cc2ccccc2N1NC(=O)c1ccc(Cl)c(S(N)(=O)=O)c1 (stereo not drawn) [Indapamide] | 0 | 0 | 0 | 0 | 0 | 0 |  |  |  |  |  | 
19 | C[C@H](O)C(=O)Nc1c(I)c(C(=O)NC(CO)CO)c(I)c(C(=O)NC(CO)CO)c1I [Iopamidol] | 0 | 0 | 0 | 0 | 0 | 0 |  |  |  |  |  | 
20 | CC(C)NNC(=O)c1ccncc1 [Iproniazid sulfate] | 0 | 0 | 0 | 0 | 0 | 0 |  |  |  |  |  | 
21 | O=C1c2ccccc2S(=O)(=O)N1CCCCN1CCN(c2ncccn2)CC1 [Ipsapirone] | 0 | 0 | 0 | 0 | 0 | 0 |  |  |  |  |  | 
22 | O=C(c1ccccc1)c1ccc2n1CCC2C(=O)O (stereo not drawn) [Ketorolac] | 0 | 0 | 0 | 0 | 0 | 0 |  |  |  |  |  | 
23 | Nc1nnc(-c2cccc(Cl)c2Cl)c(N)n1 [Lamotrigine] | 0 | 0 | 0 | 0 | -0.67 | 0 |  |  |  |  |  | 
24 | Cc1oncc1C(=O)Nc1ccc(C(F)(F)F)cc1 [Leflunomide] | 0 | 0 | 0 | 0 | 0 | 0 |  |  |  |  |  | 
25 | CC1(C)Oc2ccc(C#N)cc2[C@@H](N2CCCC2=O)[C@@H]1O [Levcromakalim] | 0 | 0 | 0 | 0 | 0 | 0 |  |  |  |  |  | 
26 | Cc1ccccc1OCC(O)CO (stereo not drawn) [Mephenesin] | 0 | 0 | 0 | 0 | 0 | 0 |  |  |  |  |  | 
27 | CCC1(c2cccc(O)c2)CCCCN(C)C1 (stereo not drawn) [Meptazinol hydrochloride] |  |  |  |  |  |  | 0 | 0 | 0 | 0 | 0 | 0
28 | Cc1cc(C)cc(OCC2CNC(=O)O2)c1 (stereo not drawn) [Metaxalone] | 0 | 0 | 0 | 0 | 0 | 0 |  |  |  |  |  | 
